Values quoted from earlier work, collected in patent US20090318549A1, “COMBINATION TREATMENT OF GLAUCOMA” (QLT Plug Delivery, Inc., priority 2008, published 2009).

Tests used:
[1] = man, after topical administration

- solubility in acetone, ethanol, ethyl acetate, isopropanol, methanol and octanol (acetone, ethanol, ethyl acetate, isopropanol, methanol, octanol): freely soluble
- solubility in acetonitrile (acetonitrile): very soluble
- solubility in water (water): practically insoluble
- time at which the peak concentration in the aqueous humor is reached [1]: about two
Structure (SMILES): CC(C)OC(=O)CCC/C=C\C[C@@H]1[C@@H](CC[C@@H](O)CCc2ccccc2)[C@H](O)C[C@@H]1O [Latanoprost, isopropyl-(Z)-7[(1R,2R,3R,5S)3,5-dihydroxy-2-[(3R)-3-hydroxy-5-phenylpentyl]cyclopentyl]-5-heptenoate]
